# Test results taken from patent publication US20030236407A1, “Perfluoroalkyl group-containing micelle-forming triiodoaromatic compounds, process for their production and their use as contrast media” (Schering AG, priority 2002, published 2003).
# Assay: Critical micelle formation concentration (CMC) by concentration-dependent determination of the surface tension
# Type: physicochemical
# Conditions: aqueous solution; from concentration-dependent surface tension
# Procedure: The CMC was determined by the concentration-dependent determination of the surface tension. The method is described by, i.a., Elworthy and Mysels; J. Colloid Interface Sci., 21, 331, 1966; Mukerjee, Mysels; The Critical Micelle Conc. Of Aqu. Surfactant Systems, 1971, US National Bureau of Standards and G. Brosowski, M. Rohr, G. Lehmann; Fette, […], Anstrichsmittel [Fats, Soaps, Paints], 75, 335, 1973.
row,Compound,Critical Micelle Formation Concentration (CMC)
1,"O=C(O)CN(C(=O)COCC(=O)N1CCN(S(=O)(=O)C(F)(F)C(F)(F)C(F)(F)C(F)(F)C(F)(F)C(F)(F)C(F)(F)C(F)(F)F)CC1)c1c(I)c(C(=O)N(CC(O)CO)CC(O)CO)c(I)c(C(=O)N(CC(O)CO)CC(O)CO)c1I (stereo not drawn) [Example 1 e, [{3,5-Bis-[bis-(2,3-dihydroxy-propyl)-carbamoyl]-2,4,6-triiodo-phenyl}-(2-{2-[4-(heptadecafluorooctane-1-sulfonyl)piperazin-1-yl]-2-oxo-ethoxy}-acetyl)-amino]-acetic Acid]",6.4e-05 mol/L
2,O=C(COCC(=O)N1CCN(S(=O)(=O)C(F)(F)C(F)(F)C(F)(F)C(F)(F)C(F)(F)C(F)(F)C(F)(F)C(F)(F)F)CC1)Nc1c(I)c(C(=O)N(CC(O)CO)CC(O)CO)c(I)c(C(=O)N(CC(O)CO)CC(O)CO)c1I (stereo not drawn) [Example 2 c],6.2e-05 mol/L
3,"O=C(O)CN(C(=O)CCC(=O)N1CCN(S(=O)(=O)C(F)(F)C(F)(F)C(F)(F)C(F)(F)C(F)(F)C(F)(F)C(F)(F)C(F)(F)F)CC1)c1c(I)c(C(=O)N(CC(O)CO)CC(O)CO)c(I)c(C(=O)N(CC(O)CO)CC(O)CO)c1I (stereo not drawn) [Example 3 e, [{3,5-Bis-[bis-(2,3-dihydroxy-propyl)-carbamoyl]-2,4,6-triiodo-phenyl}-{4[4-(heptadecafluorooctane-1-sulfonyl)-piperazin-1-yl]-4-oxo-butyryl}-amino)-acetic Acid]",5.4e-05 mol/L
4,"O=C(CCC(=O)N1CCN(S(=O)(=O)C(F)(F)C(F)(F)C(F)(F)C(F)(F)C(F)(F)C(F)(F)C(F)(F)C(F)(F)F)CC1)Nc1c(I)c(C(=O)N(CC(O)CO)CC(O)CO)c(I)c(C(=O)N(CC(O)CO)CC(O)CO)c1I (stereo not drawn) [Example 4 c, N,N,N′,N′-Tetrakis-(2,3-dihydroxy-propyl)-5-{4-[4-(heptadecafluorooctane-1-sulfonyl)-piperazin-1-yl]-4-oxo-butyrylamino}-2,4,6-triiodo-isophthalamide]",5.4e-05 mol/L
5,"CN(CC(O)C(O)C(O)C(O)CO)C(=O)c1c(I)c(NC(=O)COCC(=O)N2CCN(S(=O)(=O)C(F)(F)C(F)(F)C(F)(F)C(F)(F)C(F)(F)C(F)(F)C(F)(F)C(F)(F)F)CC2)c(I)c(C(=O)N(C)CC(O)C(O)C(O)C(O)CO)c1I (stereo not drawn) [Example 5 f, 2,4,6-Triiodo-N,N′-dimethyl-5-{2-[2-oxo-2-(4-(heptadecafluorooctane-1-sulfonyl)-piperazin-1-yl]-ethoxy]-acetylamino}-N,N′-bis-(2,3,4,5,6-pentahydroxyhexyl)-isophthalamide]",0.00012 mol/L
6,CN(CC(O)C(O)C(O)C(O)CO)C(=O)c1c(I)c(C(=O)N(C)CC(O)C(O)C(O)C(O)CO)c(I)c(N(CC(=O)O)C(=O)COCC(=O)N2CCN(S(=O)(=O)C(F)(F)C(F)(F)C(F)(F)C(F)(F)C(F)(F)C(F)(F)C(F)(F)C(F)(F)F)CC2)c1I (stereo not drawn) [Example 6 e],6.9e-05 mol/L
